According to BindingDB's records for doi:10.1021/acs.jnatprod.6b01177 (Hirosaki University, 2017):
pIC50: −log10 of the molar value.

Experiments:
[1] = Inhibition of human erythrocyte 20s proteasome trypsin-like activity using Boc-LRR-MCA as substrate pretreated for 10 mins followed by substrate addition measured after 3 hrs by spectrophotometric method
[2] = Inhibition of human erythrocyte 20s proteasome caspase-like activity using Z-LLE-MCA as substrate pretreated for 10 mins followed by substrate addition measured after 3 hrs by spectrophotometric method

In the case of `C=C1CC[C@H]2C(C)(C)[C@H](O)CC[C@]2(C)[C@H]1CC1=C(O)C(=O)C2=C(C1=O)[C@@]13C=C[C@@H](O)[C@H](O)[C@]1(C2)C(=O)c1c(O)cc(C)cc1C3=O`, the pIC50 [1] was less than 4.30 and the pIC50 [2] was 4.76.
